In the CheMixHub ionic liquid set:
± gives the uncertainty stated by the source.

Experiment: xn = mol fraction of the nth substance listed

## CCCC[n+]1ccn(C)c1.F[B-](F)(F)F + O
288.15 K, 100 kPa, x1 = 5.584e-05
  electrical conductivity: 0.0319 ± 0.00068 S/m
288.15 K, 100.3 kPa, x1 = 0.0005439
  viscosity: 1.148 ± 0.011 mPa·s
288.15 K, 100.3 kPa, x1 = 0.0009901
  viscosity: 1.163 ± 0.011 mPa·s
288.15 K, 100.3 kPa, x1 = 0.003018
  viscosity: 1.205 ± 0.011 mPa·s
288.15 K, 100.3 kPa, x1 = 0.00501
  viscosity: 1.247 ± 0.012 mPa·s
288.15 K, 100.3 kPa, x1 = 0.006973
  viscosity: 1.283 ± 0.012 mPa·s
288.15 K, 100.3 kPa, x1 = 0.009052
  viscosity: 1.332 ± 0.012 mPa·s
288.15 K, 100.3 kPa, x1 = 0.01199
  viscosity: 1.394 ± 0.012 mPa·s
288.15 K, 100.3 kPa, x1 = 0.01499
  viscosity: 1.46 ± 0.013 mPa·s
288.15 K, 100.3 kPa, x1 = 0.017
  viscosity: 1.506 ± 0.013 mPa·s
293.15 K, 100 kPa, x1 = 0.0003603
  viscosity: 1.03 ± 0.061 mPa·s
293.15 K, 100 kPa, x1 = 0.0003729
  viscosity: 1.03 ± 0.061 mPa·s
293.15 K, 100 kPa, x1 = 0.0007203
  viscosity: 1.062 ± 0.061 mPa·s
293.15 K, 100 kPa, x1 = 0.0007257
  viscosity: 1.062 ± 0.061 mPa·s
293.15 K, 100 kPa, x1 = 0.00108
  viscosity: 1.093 ± 0.061 mPa·s
293.15 K, 100 kPa, x1 = 0.0011
  viscosity: 1.093 ± 0.061 mPa·s
293.15 K, 100.3 kPa, x1 = 0.0005439
  viscosity: 1.012 ± 0.01 mPa·s
293.15 K, 100.3 kPa, x1 = 0.0009901
  viscosity: 1.024 ± 0.01 mPa·s
293.15 K, 100.3 kPa, x1 = 0.003018
  viscosity: 1.058 ± 0.01 mPa·s
293.15 K, 100.3 kPa, x1 = 0.00501
  viscosity: 1.095 ± 0.011 mPa·s
293.15 K, 100.3 kPa, x1 = 0.006973
  viscosity: 1.126 ± 0.011 mPa·s
293.15 K, 100.3 kPa, x1 = 0.009052
  viscosity: 1.168 ± 0.011 mPa·s
293.15 K, 100.3 kPa, x1 = 0.01199
  viscosity: 1.221 ± 0.011 mPa·s
293.15 K, 100.3 kPa, x1 = 0.01499
  viscosity: 1.277 ± 0.012 mPa·s
293.15 K, 100.3 kPa, x1 = 0.017
  viscosity: 1.315 ± 0.012 mPa·s
293.15 K, 101 kPa, x2 = 0.03402
  viscosity: 115.2 ± 3.6 mPa·s
293.15 K, 101 kPa, x2 = 0.06153
  viscosity: 102.2 ± 3.1 mPa·s
293.15 K, 101 kPa, x2 = 0.1014
  electrical conductivity: 0.5 ± 0.03 S/m
293.15 K, 101 kPa, x2 = 0.3977
  viscosity: 26.7 ± 2.4 mPa·s
293.2 K, 101 kPa, frequency 6e-05 MHz, x2 = 0.2
  electrical conductivity: 0.897 ± 0.009 S/m
293.2 K, 101 kPa, frequency 6e-05 MHz, x2 = 0.4
  electrical conductivity: 1.401 ± 0.014 S/m
293.2 K, 101 kPa, frequency 6e-05 MHz, x2 = 0.6
  electrical conductivity: 2.25 ± 0.023 S/m
293.2 K, 101 kPa, frequency 6e-05 MHz, x2 = 0.8
  electrical conductivity: 3.53 ± 0.035 S/m
298.15 K, 100 kPa, x1 = 3.988e-05
  electrical conductivity: 0.0281 ± 0.00069 S/m
298.15 K, 100 kPa, x1 = 0.0003603
  viscosity: 0.917 ± 0.06 mPa·s
298.15 K, 100 kPa, x1 = 0.0003729
  viscosity: 0.917 ± 0.061 mPa·s
298.15 K, 100 kPa, x1 = 0.0007203
  viscosity: 0.951 ± 0.061 mPa·s
298.15 K, 100 kPa, x1 = 0.0007257
  viscosity: 0.951 ± 0.061 mPa·s
298.15 K, 100 kPa, x1 = 0.00108
  viscosity: 0.983 ± 0.061 mPa·s
298.15 K, 100 kPa, x1 = 0.0011
  viscosity: 0.983 ± 0.061 mPa·s
298.15 K, 100 kPa, x2 = 0.9487
  viscosity: 1.99 ± 0.1 mPa·s
298.15 K, 100.3 kPa, x1 = 0.0005439
  viscosity: 0.8998 ± 0.0097 mPa·s
298.15 K, 100.3 kPa, x1 = 0.0009901
  viscosity: 0.9108 ± 0.0098 mPa·s
298.15 K, 100.3 kPa, x1 = 0.003018
  viscosity: 0.9406 ± 0.0099 mPa·s
298.15 K, 100.3 kPa, x1 = 0.00501
  viscosity: 0.9719 ± 0.01 mPa·s
298.15 K, 100.3 kPa, x1 = 0.006973
  viscosity: 0.9993 ± 0.01 mPa·s
298.15 K, 100.3 kPa, x1 = 0.009052
  viscosity: 1.036 ± 0.01 mPa·s
298.15 K, 100.3 kPa, x1 = 0.01199
  viscosity: 1.081 ± 0.011 mPa·s
298.15 K, 100.3 kPa, x1 = 0.01499
  viscosity: 1.128 ± 0.011 mPa·s
298.15 K, 100.3 kPa, x1 = 0.017
  viscosity: 1.162 ± 0.011 mPa·s
298.15 K, 101 kPa, x2 = 0
  electrical conductivity: 0.194 ± 0.023 S/m
  viscosity: 116 ± 40 mPa·s
298.15 K, 101 kPa, x2 = 0.06153
  viscosity: 79.4 ± 1.9 mPa·s
298.15 K, 101 kPa, x2 = 0.1036
  electrical conductivity: 0.274 ± 0.033 S/m
  viscosity: 81 ± 16 mPa·s
298.15 K, 101 kPa, x2 = 0.1135
  viscosity: 64.3 ± 1.7 mPa·s
298.15 K, 101 kPa, x2 = 0.1877
  electrical conductivity: 0.374 ± 0.045 S/m
  viscosity: 59.5 ± 4.5 mPa·s
298.15 K, 101 kPa, x2 = 0.2879
  electrical conductivity: 0.528 ± 0.063 S/m
  viscosity: 42.1 ± 4.2 mPa·s
298.15 K, 101 kPa, x2 = 0.3977
  viscosity: 22.3 ± 1.8 mPa·s
298.15 K, 101 kPa, x2 = 0.4094
  electrical conductivity: 0.83 ± 0.1 S/m
  viscosity: 28.1 ± 2.8 mPa·s
298.15 K, 101 kPa, x2 = 0.4954
  electrical conductivity: 1.21 ± 0.15 S/m
  viscosity: 20.8 ± 2.1 mPa·s
298.15 K, 101 kPa, x2 = 0.5908
  electrical conductivity: 1.65 ± 0.2 S/m
  viscosity: 14.6 ± 1.6 mPa·s
298.15 K, 101 kPa, x2 = 0.6979
  electrical conductivity: 2.42 ± 0.29 S/m
  viscosity: 9.5 ± 1.1 mPa·s
298.15 K, 101 kPa, x2 = 0.7971
  electrical conductivity: 3.38 ± 0.41 S/m
  viscosity: 5.92 ± 0.74 mPa·s
298.15 K, 101 kPa, x2 = 0.8493
  electrical conductivity: 4.79 ± 0.29 S/m
298.15 K, 101 kPa, x2 = 0.8953
  electrical conductivity: 4.01 ± 0.48 S/m
  viscosity: 3.2 ± 0.43 mPa·s
298.15 K, 101 kPa, x2 = 0.9496
  electrical conductivity: 4.83 ± 0.29 S/m
298.2 K, 101 kPa, frequency 6e-05 MHz, x2 = 0.2
  electrical conductivity: 1.026 ± 0.01 S/m
298.2 K, 101 kPa, frequency 6e-05 MHz, x2 = 0.4
  electrical conductivity: 1.613 ± 0.016 S/m
298.2 K, 101 kPa, frequency 6e-05 MHz, x2 = 0.6
  electrical conductivity: 2.61 ± 0.026 S/m
298.2 K, 101 kPa, frequency 6e-05 MHz, x2 = 0.8
  electrical conductivity: 4.1 ± 0.041 S/m
303 K, 100 kPa, x1 = 0.6023
  viscosity: 18.87 ± 0.41 mPa·s
303.15 K, 100 kPa, x1 = 0.0003603
  viscosity: 0.835 ± 0.06 mPa·s
303.15 K, 100 kPa, x1 = 0.0003729
  viscosity: 0.835 ± 0.061 mPa·s
303.15 K, 100 kPa, x1 = 0.0007203
  viscosity: 0.868 ± 0.061 mPa·s
303.15 K, 100 kPa, x1 = 0.0007257
  viscosity: 0.868 ± 0.061 mPa·s
303.15 K, 100 kPa, x1 = 0.00108
  viscosity: 0.904 ± 0.061 mPa·s
303.15 K, 100 kPa, x1 = 0.0011
  viscosity: 0.904 ± 0.061 mPa·s
303.15 K, 100.3 kPa, x1 = 0.0005439
  viscosity: 0.8079 ± 0.0093 mPa·s
303.15 K, 100.3 kPa, x1 = 0.0009901
  viscosity: 0.8166 ± 0.0093 mPa·s
303.15 K, 100.3 kPa, x1 = 0.003018
  viscosity: 0.8426 ± 0.0094 mPa·s
303.15 K, 100.3 kPa, x1 = 0.00501
  viscosity: 0.87 ± 0.0096 mPa·s
303.15 K, 100.3 kPa, x1 = 0.006973
  viscosity: 0.8927 ± 0.0097 mPa·s
303.15 K, 100.3 kPa, x1 = 0.009052
  viscosity: 0.9275 ± 0.0099 mPa·s
303.15 K, 100.3 kPa, x1 = 0.01199
  viscosity: 0.9648 ± 0.01 mPa·s
303.15 K, 100.3 kPa, x1 = 0.01499
  viscosity: 1.006 ± 0.01 mPa·s
303.15 K, 100.3 kPa, x1 = 0.017
  viscosity: 1.034 ± 0.01 mPa·s
303.15 K, 101 kPa, x2 = 0
  viscosity: 74 ± 16 mPa·s
303.15 K, 101 kPa, x2 = 0.06153
  viscosity: 63.1 ± 1.3 mPa·s
303.15 K, 101 kPa, x2 = 0.9252
  electrical conductivity: 5.82 ± 0.35 S/m
303.2 K, 101 kPa, frequency 6e-05 MHz, x2 = 0.2
  electrical conductivity: 1.16 ± 0.012 S/m
303.2 K, 101 kPa, frequency 6e-05 MHz, x2 = 0.4
  electrical conductivity: 1.832 ± 0.018 S/m
303.2 K, 101 kPa, frequency 6e-05 MHz, x2 = 0.6
  electrical conductivity: 2.95 ± 0.03 S/m
303.2 K, 101 kPa, frequency 6e-05 MHz, x2 = 0.8
  electrical conductivity: 4.67 ± 0.047 S/m
308 K, 100 kPa, x1 = 0.6023
  viscosity: 16.04 ± 0.35 mPa·s
308.15 K, 100 kPa, x1 = 3.988e-05
  electrical conductivity: 0.0349 ± 0.00068 S/m
308.15 K, 100 kPa, x1 = 5.584e-05
  electrical conductivity: 0.0437 ± 0.00071 S/m
